From the supplement of paper PMC11061612

Columns and labels:
[1] = tested on: SUP-M2 (T-Cell Non-Hodgkin's Lymphoma); assay: Bliss excess, mean over the matrix (fraction); higher = more synergy
Procedure, shortened: (§1)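 Cell lines in DMEM/F12 or RPMI with 10% FBS were plated in 1536-well plates, held 24 hours at 37°C, 5% CO2, then given two-drug dose matrices for 72 hours (DMSO typically 0.2%). Viability was read by CellTiter-Glo 2.0 luminescence and scaled as inhibition from 0 (vehicle wells) to 1 (blank wells). Combination Emax is the second-highest inhibition in the matrix; Bliss excess is observed combination effect minus expected EA + EB − EA·EB, EA and EB being single-agent effects.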

[2] = tested on: SKG-IIIa (Cervical Carcinoma); assay: as above
Procedure, shortened: as §1

[3] = tested on: NCI-H1341 (Small Cell Lung Carcinoma); assay: as above
Procedure, shortened: as §1

[4] = tested on: ZR-75-30 (Breast Carcinoma); assay: combination Emax (second highest fraction inhibited in the dose matrix, 72 h); higher = more inhibition; extreme values may be limits of the assay
Procedure, shortened: as §1

ES6 (Ewing's Sarcoma) = assay: as above
Procedure, shortened: as §1

[5] = tested on: SiHa (Cervical Carcinoma); assay: as above
Procedure, shortened: as §1

[6] = tested on: DBTRG-05MG (Glioblastoma); assay: as above
Procedure, shortened: as §1

[7] = tested on: NAMALWA (Burkitt's Lymphoma); assay: as above
Procedure, shortened: as §1

[8] = tested on: P30-OHK (B-Lymphoblastic Leukemia); assay: as above
Procedure, shortened: as §1

T47D (Breast Carcinoma) = assay: as above
Procedure, shortened: as §1

IST-MEL1 (Melanoma) = assay: as above
Procedure, shortened: as §1

NCI-H2373 (Mesothelioma) = assay: as above
Procedure, shortened: as §1

KALS-1 (Glioblastoma) = assay: as above
Procedure, shortened: as §1

[9] = tested on: MS-1 (Small Cell Lung Carcinoma); assay: as above
Procedure, shortened: as §1

[10] = tested on: OAW-28 (Ovarian Carcinoma); assay: as above
Procedure, shortened: as §1

[11] = tested on: PL4 (Pancreatic Carcinoma); assay: as above
Procedure, shortened: as §1

[12] = tested on: SK-CO-1 (Colorectal Carcinoma); assay: as above
Procedure, shortened: as §1

[13] = tested on: MM1S (Plasma Cell Myeloma); assay: as above
Procedure, shortened: as §1

GAK (Melanoma) = assay: as above
Procedure, shortened: as §1

[14] = tested on: NCI-H1341 (Small Cell Lung Carcinoma); assay: as above
Procedure, shortened: as §1
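Wherever Bliss excess, mean over the matrix is given: after 72 h of two-drug dosing.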

Structure (SMILES) | Bliss excess [1] | Bliss excess [2] | Bliss excess [3] | combination Emax [4] | combination Emax (ES6 (Ewing's Sarcoma)) | combination Emax [5] | combination Emax [6] | combination Emax [7] | combination Emax [8] | combination Emax (T47D (Breast Carcinoma)) | combination Emax (IST-MEL1 (Melanoma)) | combination Emax (NCI-H2373 (Mesothelioma)) | combination Emax (KALS-1 (Glioblastoma)) | combination Emax [9] | combination Emax [10] | combination Emax [11] | combination Emax [12] | combination Emax [13] | combination Emax (GAK (Melanoma)) | combination Emax [14]
Cn1cnc2c(F)c(Nc3ccc(Br)cc3Cl)c(C(=O)NOCCO)cc21 [Selumetinib] + CCN(CCO)CCCOc1ccc2c(Nc3cc(CC(=O)Nc4cccc(F)c4)[nH]n3)ncnc2c1 [AZD2811] (first compound max 10 µM, 7x7, partner max 1 µM) | -0.001 | -0.0486 | 0.0264 | 0.111 | 0.15 | 0.22 | 0.282 | 0.336 | 0.835 | 0.29 | 0.361 | 0.284 | 0.417 | 0.179 | 0.408 | 0.572 | 0.878 | 0.283 | 0.629 | 0.271
COc1cc2ncnc(Nc3ccc(F)c(Cl)c3)c2cc1OCCCN1CCOCC1 [Gefitinib] + CC(C)n1c(=O)n(C)c2cnc3cc(F)c(-c4ccc(OCCCN5CCCCC5)nc4)cc3c21 [AZD1390] (first compound max 10 µM, 7x7, partner max 0.3 µM) | -0.0522 | -0.0991 | -0.0399 | 0.446 | 0.194 | 0.0755 | 0.0768 | 0.214 | 0.173 | 0.147 | 0.0683 | 0.119 | 0.127 | 0.273 | 0.215 | 0.125 | 0.241 | 0.217 | 0.226 | 0.108
NC1(C(=O)N[C@@H](CCO)c2ccc(Cl)cc2)CCN(c2ncnc3[nH]ccc23)CC1 [Capivasertib] + CC(=O)c1c(C)c2cnc(Nc3ccc(N4CCNCC4)cn3)nc2n(C2CCCC2)c1=O [Palbociclib] (first compound max 10 µM, 7x7, partner max 10 µM) | 0.0198 | -0.0489 | -0.0345 | 0.396 | 0.46 | 0.252 | 0.23 | 0.701 | 0.56 | 0.434 | 0.48 | 0.538 | 0.398 | 0.266 | 0.191 | 0.478 | 0.419 | 0.981 | 0.474 | 0.506
COc1nnc2ccc(N3CCC(c4ccc(OCCN5CCN(C)C(=O)[C@H]5C)cc4)CC3)nn12 [AZD5153] + CCN(CCO)CCCOc1ccc2c(Nc3cc(CC(=O)Nc4cccc(F)c4)[nH]n3)ncnc2c1 [AZD2811] (first compound max 1 µM, 7x7, partner max 1 µM) | -0.0132 | -0.0193 | 0.0041 | 0.313 | 0.43 | 0.571 | 0.333 | 0.748 | 1 | 0.494 | 0.289 | 0.41 | 0.606 | 0.854 | 0.431 | 0.53 | 0.571 | 0.635 | 0.44 | 0.659
COc1cc2c(cc1OCCCCCOc1cc3c(cc1OC)C(=O)N1C=C(C)C[C@H]1C=N3)N=C[C@@H]1CC(C)=CN1C2=O [SG3199] + O=C(c1cc(Cc2n[nH]c(=O)c3ccccc23)ccc1F)N1CCN(C(=O)C2CC2)CC1 [Olaparib] (first compound max 0.001 µM, 7x7, partner max 10 µM) | 0.0274 | -0.0391 | -0.0059 | 0.308 | 0.144 | 0.0997 | 0.114 | 0.575 | 0.31 | 0.164 | 0.181 | 0.242 | 0.163 | 0.379 | 0.245 | 0.204 | 0.46 | 0.293 | 0.106 | 0.193
CCN(CCO)CCCOc1ccc2c(Nc3cc(CC(=O)Nc4cccc(F)c4)[nH]n3)ncnc2c1 [AZD2811] + C[C@@H]1COCCN1C2=NC(=NC(=C2)C3(CC3)[S@](=N)(=O)C)C4=C5C=CNC5=NC=C4 [AZD6738] (first compound max 1 µM, 7x7, partner max 10 µM) | -0.0545 | -0.0409 | 0.0028 | 0.18 | 0.6 | 0.225 | 0.236 | 0.924 | 0.928 | 0.313 | 0.731 | 0.534 | 0.828 | 0.72 | 0.396 | 0.657 | 0.7 | 0.646 | 0.564 | 0.733
C=CCn1c(=O)c2cnc(Nc3ccc(N4CCN(C)CC4)cc3)nc2n1-c1cccc(C(C)(C)O)n1 [AZD1775] + C[C@@H]1COCCN1C2=NC(=NC(=C2)C3(CC3)[S@](=N)(=O)C)C4=C5C=CNC5=NC=C4 [AZD6738] (first compound max 1 µM, partner max 10 µM) | -0.0015 | -0.0378 | 0.0723 | 0.296 | 0.652 | 0.371 | 0.332 | 0.961 | 0.943 | 0.412 | 0.797 | 0.608 | 0.923 | 0.983 | 0.522 | 0.738 | 0.738 | – | 0.821 | 0.941
CCc1c2c(nc3ccc(O)cc13)-c1cc3c(c(=O)n1C2)COC(=O)[C@]3(O)CC [SN-38] + O=C(c1cc(Cc2n[nH]c(=O)c3ccccc23)ccc1F)N1CCN(C(=O)C2CC2)CC1 [Olaparib] (first compound max 0.3 µM, 7x7, partner max 10 µM) | 0.0641 | 0.0602 | 0.0698 | 0.348 | 0.618 | 0.32 | 0.407 | 0.986 | 0.99 | 0.625 | 0.897 | 0.801 | 0.616 | 0.724 | – | 0.903 | 0.798 | – | 0.472 | 0.99
CN(CCO)CC[C@H](CSc1ccccc1)Nc1ccc(S(=O)(=O)NC(=O)c2ccc(N3CCC([C@@H](O)c4ccccc4-c4ccc(Cl)cc4)CC3)cc2)cc1S(=O)(=O)C(F)(F)F [AZD4320] + C1CN(CCC1(C(=O)N[C@@H](CCO)C2=CC=C(C=C2)Cl)N)C3=NC=NC4=C3C=CN4 [Capivasertib] (first compound max 1 µM, 7x7, partner max 3 µM) | -0.0192 | -0.0318 | -0.0203 | 0.307 | 0.291 | 0.171 | 0.619 | – | 0.992 | 0.364 | 0.26 | 0.409 | 0.485 | 0.52 | 0.899 | 0.497 | 0.659 | 1 | 0.135 | 0.974
CC(=O)c1c(C)c2cnc(Nc3ccc(N4CCNCC4)cn3)nc2n(C2CCCC2)c1=O [Palbociclib] + CN(CC[C@H](CSC1=CC=CC=C1)NC2=C(C=C(C=C2)S(=O)(=O)NC(=O)C3=CC=C(C=C3)N4CCC(CC4)[C@H](C5=CC=CC=C5C6=CC=C(C=C6)Cl)O)S(=O)(=O)C(F)(F)F)CCO [AZD4320] (first compound max 10 µM, 7x7, partner max 1 µM) | 0.0414 | – | -0.008 | – | – | 0.104 | 0.529 | – | 0.967 | 0.344 | – | 0.223 | – | – | 0.889 | 0.483 | – | 0.964 | – | 0.992
C[C@@H]1COCCN1c1cc(C2([S@](C)(=N)=O)CC2)nc(-c2ccnc3[nH]ccc23)n1 [AZD6738] + O=C(c1cc(Cc2n[nH]c(=O)c3ccccc23)ccc1F)N1CCN(C(=O)C2CC2)CC1 [Olaparib] (first compound max 10 µM, 7x7, partner max 10 µM) | 0.0646 | 0.0236 | -0.0105 | 0.213 | 0.522 | 0.228 | 0.239 | 0.938 | – | 0.301 | 0.726 | 0.66 | 0.793 | 0.742 | 0.396 | 0.672 | 0.768 | 0.642 | 0.564 | 0.755
COc1nnc2ccc(N3CCC(c4ccc(OCCN5CCN(C)C(=O)[C@H]5C)cc4)CC3)nn12 [AZD5153] + CN(CC[C@H](CSC1=CC=CC=C1)NC2=C(C=C(C=C2)S(=O)(=O)NC(=O)C3=CC=C(C=C3)N4CCC(CC4)[C@H](C5=CC=CC=C5C6=CC=C(C=C6)Cl)O)S(=O)(=O)C(F)(F)F)CCO [AZD4320] (first compound max 1 µM, 7x7, partner max 1 µM) | -0.0028 | – | 0.0454 | – | – | 0.527 | 0.399 | – | 1 | 0.472 | – | 0.511 | – | – | 1 | 0.809 | – | 1 | – | 1
C[C@@H](c1ccc2nccn2c1)n1nnc2ncc(-c3cnn(C)c3)nc21 [Savolitinib] + CN(CC[C@H](CSC1=CC=CC=C1)NC2=C(C=C(C=C2)S(=O)(=O)NC(=O)C3=CC=C(C=C3)N4CCC(CC4)[C@H](C5=CC=CC=C5C6=CC=C(C=C6)Cl)O)S(=O)(=O)C(F)(F)F)CCO [AZD4320] (first compound max 1 µM, 7x7, partner max 1 µM) | -0.058 | – | 0.0128 | – | – | 0.224 | 0.439 | – | 0.948 | 0.252 | – | 0.0896 | – | – | 0.903 | 0.472 | – | 0.974 | – | 1
